From patent publication US5807855A, “1-piperazino-1,2-dihydroindene derivatives” (priority 1992, dated 1998)
Entries after “also recorded” stand apart in the source; their conditions may differ. Where two headings read alike, the source gives them in different places.

Experiments:
[1] = tested on: DA uptake; assay: Inhibition of DA uptake in vitro; type: biochemical
Description: Inhibition of DA Uptake in Vitro was determined as described by K. P. B.o slashed.ges.o slashed., J. Med. Chem. 1983, 26, 935-947.

[2] = target: T1, 5-HT2 receptors (Rattus norvegicus, UniProt P14842); assay: Inhibition of 3H-ketanserin binding to 5-HT2 receptors in membranes from rat cortex; settings: Receptor Binding, IC50, 5-HT2 3H-Ket
T1 construct: 5-HT2 receptors in membranes from rat cortex; from tissue; host or cells: membranes from rat cortex
Description: Receptor binding studies.
5-HT2 receptors. Inhibition of ^3 H-ketanserin binding to 5-HT2 receptors in membranes from rat cortex was determined as described by Hyttel, J. Acta. Pharmacol. Toxicol.

[3] = target: T2, DA D2 receptors (Rattus norvegicus, UniProt P61169); assay: Inhibition of 3H-spiperone binding to DA D2 receptors in rat striatal membranes; settings: IC50, D2 3H-Spi
T2 construct: DA D2 receptors in rat striatal membranes; from tissue; host or cells: rat striatal membranes

[4] = target: T3, DA D1 receptor (Rattus norvegicus, UniProt P18901); assay: biochemical; type: binding; settings: IC50, D1 3H-SCH
[5] = target: T3, DA D1 receptor; assay: Antagonism of SK&F 38393-induced circling behavior in rats with unilateral 6-OHDA lesions; type: in vivo; set-up: circling behavior in rats with unilateral 6-OHDA lesions; from tissue; host or cells: living rats with unilateral 6-OHDA lesions; settings: 2 h
Description: Antagonism of SK&F 38393-induced circling behavior in rats with unilateral 6-OHDA lesions.
This test is a test for the DA D1 receptor antagonistic effect in vivo.
The experiments were performed as described by Arnt, J. and Hyttel, J. J. Neural. Transm. 1986, 67, 225-240. The experiments were done 2-9 months after lesioning when stable contralateral circling response to 2,3,4,5-tetrahydro-7,8-dihydroxy-1-phenyl-1H-3-benzazepine, hydrochloride (SK&F 38393) (4.3 μmol/kg=1.4 mg/kg) were obtained. The test compounds were injected 2 h before administration of SK&F 38393. Antagonistic effect were calculated as percent inhibition of control responses for each rat. Four to eight animals were used per dose.

[6] = Cataleptogenic effect in rats; settings: rat, in vivo, maximum effect 1-6 h after administration, read-out: ED50 in the catalepsy test
Description: Cataleptogenic effect in rats.
Catalepsy was measured every hour 1-6 h after test drug administration on a vertical wire grid and defined as being present after at least 15-simmobility. The maximum effect between 1-6 h after administration was reported. A total of 8-12 animals were used per dose.

[7] = tested on: DA D1 receptor; settings: 3H-piflutixol; D2 by 3H-spiperone; Drug. Dev. Res. 1986, 7, 35-47; cited from earlier work
[8] = tested on: D1; settings: 3H-SCH 23390; Drug. Dev. Res. 1988, 15, 389-404; cited from earlier work
[9] = tested on: DA uptake; settings: cited from earlier work
[10] = cited from earlier work; for extrapyramidal side effects (in words): at higher D2 occupancies needed to control psychosis
[11] = tested on: 5-HT2; settings: cited from earlier work
[12] = Psychopharmacology 1985, 86, 303-305; cited from earlier work
[13] = rat striatal membranes, 3H-SCH 23390, read-out: Receptor Binding
[14] = rat striatal membranes, 3H-spiperone, read-out: Receptor Binding

T1 sequence (P14842 whole entry): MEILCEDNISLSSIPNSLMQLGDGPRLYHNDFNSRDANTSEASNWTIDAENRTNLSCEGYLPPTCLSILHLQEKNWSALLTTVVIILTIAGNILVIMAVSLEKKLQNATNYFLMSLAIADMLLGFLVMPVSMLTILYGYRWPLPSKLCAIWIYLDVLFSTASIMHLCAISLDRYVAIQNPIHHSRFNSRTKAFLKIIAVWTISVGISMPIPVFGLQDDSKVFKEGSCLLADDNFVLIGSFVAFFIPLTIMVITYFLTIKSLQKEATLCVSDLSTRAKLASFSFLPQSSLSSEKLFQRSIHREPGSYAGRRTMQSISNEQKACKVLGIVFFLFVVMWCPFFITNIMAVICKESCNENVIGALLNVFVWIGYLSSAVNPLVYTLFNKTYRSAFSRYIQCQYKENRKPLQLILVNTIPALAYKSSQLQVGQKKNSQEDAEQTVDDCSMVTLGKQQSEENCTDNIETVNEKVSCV
T2 sequence (P61169 whole entry): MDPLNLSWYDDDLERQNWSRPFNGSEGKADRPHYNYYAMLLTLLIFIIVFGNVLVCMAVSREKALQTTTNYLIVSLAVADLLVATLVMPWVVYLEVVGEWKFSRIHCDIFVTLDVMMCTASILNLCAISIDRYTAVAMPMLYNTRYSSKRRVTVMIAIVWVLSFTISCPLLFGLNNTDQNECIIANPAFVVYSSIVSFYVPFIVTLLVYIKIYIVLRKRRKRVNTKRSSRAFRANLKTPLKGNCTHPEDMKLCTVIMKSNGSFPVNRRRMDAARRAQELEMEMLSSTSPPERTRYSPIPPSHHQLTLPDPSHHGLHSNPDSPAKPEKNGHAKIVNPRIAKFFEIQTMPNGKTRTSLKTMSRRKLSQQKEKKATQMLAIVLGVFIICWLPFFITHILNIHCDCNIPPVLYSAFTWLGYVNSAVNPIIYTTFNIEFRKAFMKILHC
T3 sequence (P18901 whole entry): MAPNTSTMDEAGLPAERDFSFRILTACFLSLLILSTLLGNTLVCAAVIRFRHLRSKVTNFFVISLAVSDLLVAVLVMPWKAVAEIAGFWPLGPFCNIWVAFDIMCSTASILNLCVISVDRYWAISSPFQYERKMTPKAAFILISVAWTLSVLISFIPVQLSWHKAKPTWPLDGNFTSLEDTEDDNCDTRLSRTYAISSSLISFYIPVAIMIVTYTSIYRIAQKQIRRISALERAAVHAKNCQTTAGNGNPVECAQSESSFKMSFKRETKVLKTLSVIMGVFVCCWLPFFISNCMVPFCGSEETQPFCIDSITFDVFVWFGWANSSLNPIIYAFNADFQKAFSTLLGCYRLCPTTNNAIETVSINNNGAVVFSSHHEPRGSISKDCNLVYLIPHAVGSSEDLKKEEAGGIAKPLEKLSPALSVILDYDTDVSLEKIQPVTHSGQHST

CN1CCN([C@@H]2C[C@@H](c3ccccc3)c3ccc(Cl)cc32)CC1(C)C (racemic) [Compound 10, (±)-Trans-4-[6-chloro-3-phenyl-2,3-dihydro-1H-inden-1-yl]-1,2,2-trimethylpiperazine]
IC50 [1]: 0.015 µM
IC50 [2]: 0.0032 µM
IC50 ([3]; Receptor Binding): 0.02 µM
IC50 [4, 13]: 0.0016 µM

CN1CCN([C@@H]2C[C@@H](c3ccc(F)cc3)c3ccc(F)cc32)CC1(C)C (racemic) [Compound 38, (±)-Trans-4-[6-fluoro-3-(4-fluorophenyl)-2,3-dihydro-1H-inden-1-yl]-1,2,2-trimethyl piperazine]
ED50 [5]: 0.5 µmol/kg
IC50 [1]: 0.009 µM
IC50 [2]: 0.0036 µM
ED50 [6]: > 68 µmol/kg
IC50 [3, 14]: 0.011 µM
IC50 ([4]; Receptor Binding): 0.00088 µM

OCCN1CCN([C@@H]2C[C@@H](c3ccc(F)cc3)c3ccc(C(F)(F)F)cc32)CC1 (racemic) [Tefludazine]
DA D1 receptor affinity (in words) [7]: substantially lower than the D2 affinity

CN1CCN([C@@H]2C[C@@H](c3ccc(F)cc3)c3ccc(Cl)cc32)CC1(C)C (single isomer, unassigned) [+2, (+) Trans-4-[6-chloro-3-(4-fluorophenyl)-2,3-dihydro-1H-inden-1-yl]-1,2,2-trimethylpiperazine]
IC50 [1]: 0.016 µM
IC50 [2]: 2 µM

Fc1ccc(C2CC(N3CCN4CCCCC4C3)c3cc(F)ccc32)cc1 (stereo not shown) [Compound 33, 2-[6-fluoro-3-(4-fluorophenyl)-2,3-dihydro-1H-inden-1-yl]-octahydropyrido[1,2-a]-pyrazine]
IC50 [2]: 0.028 µM
IC50 [3, 14]: 0.32 µM
IC50 [4, 13]: 0.0058 µM

O=C1NCCN1CCN1CCN([C@@H]2C[C@@H](c3ccc(F)cc3)c3ccccc32)CC1 [Irindalone, reference compound]
D1 affinity (in words) [8]: even lower than the D2 affinity
IC50 ([4]; read-out: Receptor Binding): 0.89 µM

COC(=O)[C@H]1[C@@H](OC(=O)c2ccccc2)C[C@@H]2CC[C@H]1N2C [cocaine]
DA uptake inhibition (in words) [9]: inhibitor of DA uptake

O=C(CCCN1CCC(O)(c2ccc(Cl)cc2)CC1)c1ccc(F)cc1 [haloperidol]
extrapyramidal side effects (in words) [10]: accompanied by extrapyramidal side effects

OCCN1CCN(CCCN2c3ccccc3Sc3ccc(Cl)cc32)CC1 [perphenazine]
extrapyramidal side effects (in words) [10]: accompanied by extrapyramidal side effects

Cc1nc2sccn2c(=O)c1CCN1CCC(=C(c2ccc(F)cc2)c2ccc(F)cc2)CC1 [ritanserin]
5-HT2 antagonism (in words) [11]: selective 5-HT2 antagonist
clinical effect (in words) ([10]; patients): shown to be an antidepressant and to improve depressive symptoms of schizophrenia; also recorded: improve the quality of sleep; also recorded: found to relieve neuroleptic-induced parkinsonism
effect in animal test (in words) [12]: exert effects in an animal test reminiscent of anxiolytic activity

Cc1nc2n(c(=O)c1CCN1CCC(C(=O)c3ccc(F)cc3)CC1)CCS2 [setoperone]
5-HT2 antagonism (in words) [11]: 5-HT2 and moderate dopamine receptor antagonist
